Values of other authors as cited in patent US20070065359A1, “Nanocells for diagnosis and treatment of diseases and disorders” (priority 2005, published 2007).

Target: TF antigen
Settings: peptide displayed as a monomer; read-out: affinity for the TF antigen

With “IVWHRWYAWSPASRI [TF antigen-binding peptide, I—V—W—H—R—W—Y-A-W—S—P-A-S—R—I]” as the sequence, how does the Kd read?
Its Kd is 600 nM.
